This is an account of results in patent US11906529B1, “Methods for treatment and diagnosis of endometriosis” (Marshall University Research Corporation, priority 2018, dated 2024).

For experiment [1], the system named is EOOF5 cells. As to the kind of experiment: xCELLigence cell index of primary endometrial cells treated with PF and/or drug. It counts as cell-based, human. Conditions: for cell growth (% CI), PF and drug compared to PF alone: EOOF5 cells; for cell growth (% CI), PF and drug compared to PF alone / cell viability and growth in the presence of PF: 1% PF; for cell viability and growth in the presence of PF: human endometrial cells. The method, then: (§1) Cell treatment. Ishikawa cells (human endometrial cell line) or EOOF5 cells (primary endometrial cells from a patient without endometriosis, gift from Emory University) were cultured in T75 flasks in complete media (DMEM, 10% FCS, 1% P/S). Cells were treated with 1% PF (control and endo patients) in charcoal stripped media containing 0.1% FCS, for 48 hours. A subset of cells were also treated with GSK126 or EPZ-6438 (FIG. 15), at various concentrations for 24 hours. Cells were collected post-treatment for RNA (PCR) and protein analysis (Western blotting).
xCELLigence. EOOF5 cells (primary endometrial cells) was plated at 10,000 cells per well using xCELLigence technology. Plates that have gold electrodes attached to the bottom were utilized. The electrodes produce electrons, which interact with the solution, completing a circuit. As the number of adhered cells in the plate increases, the more this interferes with circuit completion. Cells were treated with either 1% control or endo PF alone or treated with PF for 24 hours before being treated with either 1 μM GSK, 2.5 μM GSK, or 2.5 μM EPZ. Cells were also treated with drug alone. % Cell Impedance (CI) was calculated compared to CF media.

Experiment [2] deals with Ishikawa cells. Put plainly: Inhibitor study using MTT analysis on Ishikawa cells in the presence of PF. The class given is cell-based, human. Conditions: 1% PF. The method, then: It was more than 1000 fold selective for EZH2 over other histone methyltransferases, including both SET-domain-containing and non-SET domain-containing methyltransferases, as shown schematically in FIG. 6A. […] In this regard, an inhibitor study using MTT analysis was conducted according to the schematic of FIG. 7A. Various doses of GSK126 were tested on Ishikawa cells in the presence of PF: 100 nM, 500 nM, 1 μM, 2.5 μM, 5 μM, and 10 μM in DMSO. Cell growth and viability of cells was evaluated rather than just EZH2 expression. (FIGS. 7B-7C) 1 mM and 0.1 mM solutions of GSK126 were also created from serial dilutions of 10 mM GSK126. […] It was somewhat unclear, however, whether that the effect of the drug as the volume of the vehicle (DMSO) could have impacted the results.
as §1

For experiment [3], the system named is EZH2 expression. As to the kind of experiment: mRNA analysis on Ishikawa cells treated with PF and/or GSK 126. Conditions: depending on order of drug treatment, compared with control or endo PF alone. It counts as cell-based, human. The method, then:
as §1

For experiment [4], the system named is global trimethylation. Conditions: reactivates silenced PRC2 genes; cited from earlier work.

For the molecule `CCN(c1cc(-c2ccc(CN3CCOCC3)cc2)cc(C(=O)NCc2c(C)cc(C)[nH]c2=O)c1C)C1CCOCC1` [EPZ-6438], in experiment [1], the “cell growth (% CI), PF and drug compared to PF alone” value is “decrease in cell growth”; the “cell viability and growth in the presence of PF” value was “concentration dependent decrease”.

On to `CC[C@H](C)n1cc(C)c2c(C(=O)NCc3c(C)cc(C)[nH]c3=O)cc(-c3ccc(N4CCNCC4)nc3)cc21` [GSK 126], for which the cell viability result in experiment [2] (500 nM, vehicle (DMSO) volume could have impacted the results) is listed as “dip in viability”. Also, in experiment [2] (GSK126 100 nM-10 μM in DMSO), the “cell growth (proliferation)” value is “very little proliferation”. For the same molecule, in experiment [3], the “EZH2 mRNA expression” value is “bidirectional effect”. For the same molecule, in experiment [1] (1% PF first for 24 hours followed by drug for 48 hours), the “cell growth (% CI), drug added after PF pretreatment” value is “able to lower the cell growth induced by PF”. In experiment [1], the “cell growth (% CI), PF and drug compared to PF alone” value is “decrease in cell growth”; the “cell viability and growth in the presence of PF” value was “concentration dependent decrease”. Further, the “% CI, drug first followed by PF” value in experiment [1] (GSK first for 24 hours, then 1% PF for another 48 hours) is reported as “significant decrease in % CI”. Further, the “global H2K37 trimethylation levels” value in experiment [4] is “inhibit global H2K37 trimethylation levels”.
